Our source for the K values is ChEMBL document CHEMBL1123380, “Spin trapping of superoxide and hydroxyl radicals with substituted pyrroline 1-oxides” (J Med Chem, 1986).

A short description of data set [1]: Compound was evaluated for the partition coefficient in octanol/water. In kind it is physicochemical.
Data set [2] in a line: Compound was evaluated for the partition coefficient in octanol/water (1-octanol / 10 mM phosphate buffer at pH 7.4). Format: physicochemical.

As to `O=CCCC1([N+](=O)[O-])CCCC1`, the K in data set [1] turned out to be 0.8.
On to `CCCCC(C)(CCC=O)[N+](=O)[O-]` (centres undefined), for which the K in data set [1] is listed as 1.1.
The compound `CC1(C)CCC=[N+]1[O-]` had a K in data set [2] of 0.02.
As to `CCCC(CCC)(CCC=O)[N+](=O)[O-]`, the K in data set [1] is 4.9.
